Laboratory results from BindingDB's records for doi:10.1016/0960-894X(96)00045-5 (1996).

Each molecule was assayed against 5-hydroxytryptamine receptor 1A (Rattus norvegicus) (UniProt P19327) (assay: Inhibition of specific [3H]OH-DPAT binding at 5-hydroxytryptamine 1A receptor in rat hippocampal membranes).
Chain of 5-hydroxytryptamine receptor 1A (Rattus norvegicus) (P19327 whole entry, looked up): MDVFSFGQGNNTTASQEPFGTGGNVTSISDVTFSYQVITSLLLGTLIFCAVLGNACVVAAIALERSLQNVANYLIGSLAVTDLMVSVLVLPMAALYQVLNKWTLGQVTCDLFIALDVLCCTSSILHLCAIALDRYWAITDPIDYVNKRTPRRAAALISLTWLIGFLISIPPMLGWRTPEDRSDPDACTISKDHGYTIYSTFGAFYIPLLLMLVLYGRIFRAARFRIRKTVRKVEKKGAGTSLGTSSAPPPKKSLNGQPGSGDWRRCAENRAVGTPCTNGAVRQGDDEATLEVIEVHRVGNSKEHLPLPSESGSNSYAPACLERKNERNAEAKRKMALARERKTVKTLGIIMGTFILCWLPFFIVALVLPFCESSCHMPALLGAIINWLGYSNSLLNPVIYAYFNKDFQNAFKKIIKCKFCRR

Row | Structure (SMILES) | Ki [nM]
1 | CCCN(CCC)C[C@@H]1C[C@@H]1c1cccc(OC)c1 [[(1R,2S)-2-(3-Methoxy-phenyl)-cyclopropylmethyl]-dipropyl-amine] | 388
2 | CCCN(CCC)[C@@H]1C[C@@H]1c1ccccc1OC [[(1R,2R)-2-(2-Methoxy-phenyl)-cyclopropyl]-dipropyl-amine] | > 10000
3 | CCCN(CCC)C[C@@H]1C[C@@H]1c1cccc(O)c1 [3-((1S,2R)-2-Dipropylaminomethyl-cyclopropyl)-phenol] | 58
4 | CCCN(CCC)C[C@@H]1C[C@@H]1c1ccccc1OC [[(1R,2S)-2-(2-Methoxy-phenyl)-cyclopropylmethyl]-dipropyl-amine] | 998
5 | CCCN(CCC)C[C@@H]1C[C@@H]1c1ccccc1O [2-((1S,2R)-2-Dipropylaminomethyl-cyclopropyl)-phenol] | 379
6 | CCCN(CCC)C[C@H]1C[C@@H]1c1cccc(OC)c1 [[(1S,2S)-2-(3-Methoxy-phenyl)-cyclopropylmethyl]-dipropyl-amine] | 310
7 | CCN(CC)C[C@H]1C[C@@H]1c1ccccc1O [2-((1S,2S)-2-Diethylaminomethyl-cyclopropyl)-phenol] | 506
8 | CCCN(CCC)C[C@H]1C[C@@H]1c1cccc(O)c1 [3-((1S,2S)-2-Dipropylaminomethyl-cyclopropyl)-phenol] | 186
9 | CCCN(CCC)C[C@H]1C[C@@H]1c1ccccc1O [2-((1S,2S)-2-Dipropylaminomethyl-cyclopropyl)-phenol] | 752
10 | CCCN(CCC)[C@H]1C[C@@H]1c1ccccc1OC [[(1S,2R)-2-(2-Methoxy-phenyl)-cyclopropyl]-dipropyl-amine] | 17
11 | CCN(CC)C[C@H]1C[C@@H]1c1ccccc1OC [Diethyl-[(1S,2S)-2-(2-methoxy-phenyl)-cyclopropylmethyl]-amine] | 431
12 | CCCN(CCC)[C@@H]1C[C@@H]1c1cccc(OC)c1 [[(1R,2R)-2-(3-Methoxy-phenyl)-cyclopropyl]-dipropyl-amine] | 736
13 | CCCN(CCC)C[C@H]1C[C@@H]1c1ccccc1OC [[(1S,2S)-2-(2-Methoxy-phenyl)-cyclopropylmethyl]-dipropyl-amine] | 239
